# Laboratory results reported in patent US20260207615A1, “FLUOROPYRIDOPYRIMIDINE AND FLUOROQUINAZOLINE DERIVATIES AND METHODS OF USE THEREOF” (Frontier Medicines Corporation, priority 2022, published 2026).
# pIC50: −log10 of the molar value.
# Target: T1, KRAS G12C and cRAF interaction (Homo sapiens, UniProt P01116, C118S/C51S/C80L/G12C)
# T1 construct: truncated version comprising amino acids 1-169
# Assay: Inhibition of KRAS G12C and cRAF binding (AlphaScreen)
# Assay type: biochemical
# Conditions: KRAS G12C (Cys-light, aa 1-169) preloaded with GMPPNP, cRaf RBD (aa 50-131), 2 hours incubation
# Protocol: The AlphaScreen technology was used to determine IC50s for compound inhibition of KRAS G12C (present as the Cys-light (C51S, C80L and C118S), truncated version comprising amino acids 1-169) and cRAF interaction. Compounds were diluted in 100% DMSO and each compound concentration was spotted at 200 nl/well onto low volume, white 384 well plates. The KRAS G12C contained a biotin-AviTag and the cRaf, as Ras-binding domain (amino acids 50-131, RBD), was GST-tagged. KRAS G12C was preloaded with the GTP analogue Guanosine 5′-[β,γ-imido]triphosphate (GMPPNP). The KRAS G12C was diluted in 25 mM Hepes, pH 7.4, 150 mM NaCl, 5 mM MgCl2, 0.01% TritonX-100 and 10 μM GMPPNP and added at 10 μl/well to compound-spotted plates resulting in a DMSO concentration of 2%. Plates were incubated for 2 hours. A mixture of RBD and the AlphaScreen streptavidin donor and glutathione acceptor beads diluted in 25 mM Hepes, pH 7.4, 150 mM NaCl, 5 mM MgCl2, 0.01% TritonX-100 and 2% DMSO was then added at 10 μl/well and incubated for 60-90 minutes before the samples were read for emission at 570 nm after excitation of the donor beads at 680 nm. All incubations were performed at room temperature. The final top compound concentration was 50 μM with 1:3 titrations for 10-point dose response curves. Final assay conditions were 0.5 nM KRAS G12C, 0.75 nM RBD and 5 μg/ml each of AlphaScreen donor and acceptor beads. IC50S were determined using nonlinear regression fit of [inhibitor] vs. response (4 parameters).
# A counter assay was also set up to rule out inhibitors of the AlphaScreen technology itself. Compound plates were incubated for 2 hours as above with buffer only.
# The AlphaScreen beads were added as above except biotin-AviTag-GST was substituted for the RBD. Samples were read and analyzed as above.
# T1 sequence (P01116 1-169 isoform P01116-2 G12C/C51S/C80L/C118S): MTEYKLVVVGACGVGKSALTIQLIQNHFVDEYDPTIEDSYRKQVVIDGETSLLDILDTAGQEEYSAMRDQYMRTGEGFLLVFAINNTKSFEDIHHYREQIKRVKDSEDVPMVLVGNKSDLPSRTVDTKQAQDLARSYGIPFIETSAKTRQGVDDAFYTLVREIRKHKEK
row,Compound,pIC50
1,"O=C(/C=C/CN1CCOCC1)N1CCN(c2nc(OC[C@@]34CCCN3C[C@H](F)C4)nc3c(F)c(-c4cccc5cccc(Cl)c45)ncc23)CC12COC2 [Example 12, (E)-1-(8-(7-(8-chloronaphthalen-1-yl)-8-fluoro-2-(((2R,7aS)-2-fluorotetrahydro-1H-pyrrolizin-7a(5H)-yl)methoxy)pyrido[4,3-d]pyrimidin-4-yl)-2-oxa-5,8-diazaspiro[3.5]nonan-5-yl)-4-morpholinobut-2-en-1-one]",≤ 6.30
2,Cc1nccc(/C=C(\F)C(=O)N2CCN(c3nc(OC[C@@]45CCCN4C[C@H](F)C5)nc4c(F)c(-c5cccc6cccc(Cl)c56)ncc34)CC23COC3)n1 [Example 61],≤ 6.30
3,"Cc1cc(/C=C/C(=O)N2CCN(c3nc(OC[C@@]45CCCN4C[C@H](F)C5)nc4c(F)c(-c5cccc6ccc(F)c(F)c56)ncc34)CC23COC3)nc(C)n1 [Example 32, (E)-1-(8-(7-(7,8-difluoronaphthalen-1-yl)-8-fluoro-2-(((2R,7aS)-2-fluorotetrahydro-1H-pyrrolizin-7a(5H)-yl)methoxy)pyrido[4,3-d]pyrimidin-4-yl)-2-oxa-5,8-diazaspiro[3.5]nonan-5-yl)-3-(2,6-dimethylpyrimidin-4-yl) prop-2-en-1-one]",7.00 to 8.00
4,"O=C(/C=C/CN1CC2CCC(C1)O2)N1CCN(c2nc(OC[C@@]34CCCN3C[C@H](F)C4)nc3c(F)c(-c4cccc5cccc(Cl)c45)ncc23)CC12COC2 [Example 15, (E)-4-(8-oxa-3-azabicyclo[3.2.1]octan-3-yl)-1-(8-(7-(8-chloronaphthalen-1-yl)-8-fluoro-2-(((2R,7aS)-2-fluorotetrahydro-1H-pyrrolizin-7a(5H)-yl)methoxy)pyrido[4,3-d]pyrimidin-4-yl)-2-oxa-5,8-diazaspiro[3.5]nonan-5-yl) but-2-en-1-one]",7.00 to 8.00
5,"C=CC(=O)N1CCN(c2nc(OC[C@@]34CCCN3C[C@H](F)C4)nc3c(F)c(-c4c(C)cc(F)c5[nH]ncc45)ncc23)CC12COC2 [Example 52, 1-(8-(8-fluoro-7-(7-fluoro-5-methyl-1H-indazol-4-yl)-2-(((2R,7aS)-2-fluorotetrahydro-1H-pyrrolizin-7a(5H)-yl)methoxy)pyrido[4,3-d]pyrimidin-4-yl)-2-oxa-5,8-diazaspiro[3.5]nonan-5-yl) prop-2-en-1-one]",≤ 6.30
6,"C=CC(=O)N1CCN(c2nc(OC[C@@]34CCCN3C[C@H](F)C4)nc3c(F)c(-c4cc(O)cc(Cl)c4C4CC4)ncc23)CC12CCOC2 (stereo partly drawn) [Example 85, 1-(9-(7-(3-chloro-2-cyclopropyl-5-hydroxyphenyl)-8-fluoro-2-(((2R,7aS)-2-fluorotetrahydro-1H-pyrrolizin-7a(5H)-yl)methoxy)pyrido[4,3-d]pyrimidin-4-yl)-2-oxa-6,9-diazaspiro[4.5]decan-6-yl) prop-2-en-1-one]",> 8.00
7,Cc1nccc(/C=C/C(=O)N2CCN(c3nc(OC[C@@]45CCCN4C[C@H](F)C5)nc4c(F)c(-c5ccccc5C(F)F)ncc34)CC23COC3)n1 [Example 94],≤ 6.30
8,"O=C(C#CCN1CC2CCC(C1)O2)N1CCN(c2nc(OC[C@@]34CCCN3C[C@H](F)C4)nc3c(F)c(-c4cccc5cccc(Cl)c45)ncc23)CC12COC2 [Example 47, 4-(8-oxa-3-azabicyclo[3.2.1]octan-3-yl)-1-(8-(7-(8-chloronaphthalen-1-yl)-8-fluoro-2-(((2R,7aS)-2-fluorotetrahydro-1H-pyrrolizin-7a(5H)-yl)methoxy)pyrido[4,3-d]pyrimidin-4-yl)-2-oxa-5,8-diazaspiro[3.5]nonan-5-yl) but-2-yn-1-one]",6.30 to 7.00
9,"Cc1nccc(/C=C/C(=O)N2CCN(c3nc(OCC45CCCN4CCC5)nc4c(F)c(-c5cccc6ccc(F)c(Cl)c56)ncc34)CC23COC3)n1 [Example 11, (E)-1-(8-(7-(8-chloro-7-fluoronaphthalen-1-yl)-8-fluoro-2-((tetrahydro-1H-pyrrolizin-7a(5H)-yl)methoxy)pyrido[4,3-d]pyrimidin-4-yl)-2-oxa-5,8-diazaspiro[3.5]nonan-5-yl)-3-(2-methylpyrimidin-4-yl) prop-2-en-1-one]",6.30 to 7.00
10,"C#Cc1c(F)ccc2cccc(-c3ncc4c(N5CCN(C(=O)/C(F)=C/c6ccnc(C)n6)C6(COC6)C5)nc(OC[C@@]56CCCN5C[C@H](F)C6)nc4c3F)c12 [Example 49, (Z)-1-(8-(7-(8-ethynyl-7-fluoronaphthalen-1-yl)-8-fluoro-2-(((2R,7aS)-2-fluorotetrahydro-1H-pyrrolizin-7a(5H)-yl)methoxy)pyrido[4,3-d]pyrimidin-4-yl)-2-oxa-5,8-diazaspiro[3.5]nonan-5-yl)-2-fluoro-3-(2-methylpyrimidin-4-yl) prop-2-en-1-one]",> 8.00
11,"O=C(/C=C/CN1C[C@H]2C[C@@H]1CO2)N1CCN(c2nc(OC[C@@]34CCCN3C[C@H](F)C4)nc3c(F)c(-c4cccc(Cl)c4C(F)(F)F)ncc23)CC12COC2 [Example 68, (E)-4-((1R,4R)-2-oxa-5-azabicyclo[2.2.1]heptan-5-yl)-1-(8-(7-(3-chloro-2-(trifluoromethyl)phenyl)-8-fluoro-2-(((2R,7aS)-2-fluorotetrahydro-1H-pyrrolizin-7a(5H)-yl)methoxy)pyrido[4,3-d]pyrimidin-4-yl)-2-oxa-5,8-diazaspiro[3.5]nonan-5-yl) but-2-en-1-one]",> 8.00
12,"C=CC(=O)N1CCN(c2nc(OC[C@@]34CCCN3C[C@H](F)C4)nc3c(F)c(-c4cccc5ccc(F)c(CC)c45)ncc23)CC12COC2 [Example 45, 1-(8-(7-(8-ethyl-7-fluoronaphthalen-1-yl)-8-fluoro-2-(((2R,7aS)-2-fluorotetrahydro-1H-pyrrolizin-7a(5H)-yl)methoxy)pyrido[4,3-d]pyrimidin-4-yl)-2-oxa-5,8-diazaspiro[3.5]nonan-5-yl) prop-2-en-1-one]",> 8.00
13,"Cc1nccc(/C=C/C(=O)N2CCN(c3nc(OC[C@@]45CCCN4C[C@H](F)C5)nc4c(F)c(-c5cccc6cccc(Cl)c56)ncc34)CC23COC3)n1 [Example 2, (E)-1-(8-(7-(8-chloronaphthalen-1-yl)-8-fluoro-2-(((2R,7aS)-2-fluorotetrahydro-1H-pyrrolizin-7a(5H)-yl)methoxy)pyrido[4,3-d]pyrimidin-4-yl)-2-oxa-5,8-diazaspiro[3.5]nonan-5-yl)-3-(2-methylpyrimidin-4-yl) prop-2-en-1-one]",6.30 to 7.00
14,C=CC(=O)N1CCN(c2nc(OC[C@@]34CCCN3C[C@H](F)C4)nc3c(F)c(-c4cccc5ccc(F)c(F)c45)ncc23)CC12CCOC2 (stereo partly shown) [Example 82],7.00 to 8.00
15,C=CC(=O)N1CCN(c2nc(OC[C@@]34CCCN3C[C@H](F)C4)nc3c(F)c(-c4ccc(F)c5sc(N)nc45)c(Cl)cc23)C[C@]12CCOC2 [Example 87],≤ 6.30
16,"CO[C@@H]1CCN(C/C=C/C(=O)N2CCN(c3nc(OC[C@@]45CCCN4C[C@H](F)C5)nc4c(F)c(-c5cccc6ccc(F)c(Cl)c56)ncc34)CC23COC3)C1 [Example 8, (E)-1-(8-(7-(8-chloro-7-fluoronaphthalen-1-yl)-8-fluoro-2-(((2R,7aS)-2-fluorotetrahydro-1H-pyrrolizin-7a(5H)-yl)methoxy)pyrido[4,3-d]pyrimidin-4-yl)-2-oxa-5,8-diazaspiro[3.5]nonan-5-yl)-4-((R)-3-methoxypyrrolidin-1-yl) but-2-en-1-one]",7.00 to 8.00
17,"O=C(/C=C/CN1CCOCC1)N1CCN(c2nc(OC[C@@]34CCCN3C[C@H](F)C4)nc3c(F)c(-c4cc(O)cc(Cl)c4C4CC4)ncc23)CC12COC2 [Example 30, (E)-1-(8-(7-(3-chloro-2-cyclopropyl-5-hydroxyphenyl)-8-fluoro-2-(((2R,7aS)-2-fluorotetrahydro-1H-pyrrolizin-7a(5H)-yl)methoxy)pyrido[4,3-d]pyrimidin-4-yl)-2-oxa-5,8-diazaspiro[3.5]nonan-5-yl)-4-morpholinobut-2-en-1-one]",> 8.00
18,"O=C(/C=C/CN1[C@@H]2CC[C@H]1COC2)N1CCN(c2nc(OC[C@@]34CCCN3C[C@H](F)C4)nc3c(F)c(-c4cccc5ccc(F)c(F)c45)ncc23)CC12COC2 [Example 21, (E)-4-((1R,5S)-3-oxa-8-azabicyclo[3.2.1]octan-8-yl)-1-(8-(7-(7,8-difluoronaphthalen-1-yl)-8-fluoro-2-(((2R,7aS)-2-fluorotetrahydro-1H-pyrrolizin-7a(5H)-yl)methoxy)pyrido[4,3-d]pyrimidin-4-yl)-2-oxa-5,8-diazaspiro[3.5]nonan-5-yl) but-2-en-1-one]",> 8.00
19,C=CC(=O)N1CCN(c2nc(OC[C@@]34CCCN3C[C@H](F)C4)nc3c(F)c(-c4ccc(F)c5sc(N)nc45)c(C(F)(F)F)cc23)CC12CCOC2 (stereo partly shown) [Example 90],7.00 to 8.00
